Test results reported in patent US20100324087A1, “COMBINED USE OF ANGIOGENESIS INHIBITOR AND TAXANE” (EISAI R&D MANAGEMENT CO., LTD., priority 2008, published 2010).

System: Human non-small-cell lung cancer cell line A549
Assay: Combination use of E7080 and docetaxel in subcutaneous transplanted models (in vivo) of A549
Details: alone, A549 subcutaneous transplant, nude mouse
Method: Human non-small-cell lung cancer cell line A549 (purchased from Dainippon Sumitomo Pharma Co., Ltd) was cultured in RPMI1640 (containing 10% FBS) in a 5% carbon dioxide gas incubator at 37° C. to about 80% confluence, and then the cells were treated with trypsin-EDTA and then collected. A 1×10^8 cells/mL suspension was prepared with a phosphate buffer, which was further added with an equivalent amount of matrigel matrix to give a 5×10^7 cells/mL suspension, and each 0.1 mL of the resulting cell suspension was subcutaneously transplanted to a nude mouse at the side of its body. Fourteen days after the transplantation, 4-(3-chloro-4-(cyclopropylaminocarbonyl)aminophenoxy)-7-methoxy-6-quinolinecarboxamide (hereinafter, also referred to as “E7080”) was orally administered for 10 or 30 mg/kg, once a day for four weeks, while 15 mg/kg of docetaxel was intravenously administered alone or in combination every four days for three times. The major and minor axes of tumors were measured with Digimatic caliper (Mitsutoyo Corporation), and tumor volumes and relative tumor volumes were calculated according to the following formulae:
Tumor Volume (TV)=Major axis of tumor (mm)×(Minor axis of tumor)^2 (mm^2)/2
Relative Tumor Volume (RTV)=Tumor volume on measurement day/Tumor volume on the first administration day.

| SMILES | Relative tumor volume on Day 29, Average ± standard deviation (E7080 10 mg/kg orally once a day for four weeks) | Relative tumor volume on Day 29, Average ± standard deviation (E7080 30 mg/kg orally once a day for four weeks) | Relative tumor volume on Day 29, Average ± standard deviation (Docetaxel 15 mg/kg intravenously every four days for three times) |
| --- | --- | --- | --- |
| COc1cc2nccc(Oc3ccc(NC(=O)NC4CC4)c(Cl)c3)c2cc1C(N)=O [E7080, 4-(3-chloro-4-(cyclopropylaminocarbonyl)aminophenoxy)-7-methoxy-6-quinolinecarboxamide] | 1.47 ± 0.16 | 1.14 ± 0.30 | – |
| CC(=O)O[C@@]12CO[C@@H]1C[C@H](O)[C@@]1(C)C(=O)[C@H](O)C3=C(C)[C@@H](OC(=O)[C@H](O)[C@@H](NC(=O)OC(C)(C)C)c4ccccc4)C[C@@](O)([C@@H](OC(=O)c4ccccc4)[C@H]21)C3(C)C [Docetaxel, docetaxel, reference compound] | – | – | 1.48 ± 0.29 |
